Patent publication US20230382925A1, “MODULATORS OF CYSTIC FIBROSIS TRANSMEMBRANE CONDUCTANCE REGULATOR” (VERTEX PHARMACEUTICALS INCORPORATED, priority 2020, published 2023)
Where two headings read alike, the source gives them in different places.

Biological target: CFTR (Homo sapiens, UniProt P13569)
Test: Membrane Potential Dye, Enteroid Assay B
Format: cell-based
Method in brief: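 Activity given as % of a triple-combination reference (1 μM and 3 μM correctors, 300 nM acute potentiator). Enteroids were preincubated 18-24 h with compound; chloride efflux then measured 15 min by methyl oxonol fluorescence after forskolin/IBMX/Compound III stimulation in chloride-free buffer containing CaCCinh-A01 and Chicago Sky Blue.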

[1] = Table 10, read-out: Ent. B EC50

CFTR, sequence (P13569 with tags, fused parts or gaps DEL508-508): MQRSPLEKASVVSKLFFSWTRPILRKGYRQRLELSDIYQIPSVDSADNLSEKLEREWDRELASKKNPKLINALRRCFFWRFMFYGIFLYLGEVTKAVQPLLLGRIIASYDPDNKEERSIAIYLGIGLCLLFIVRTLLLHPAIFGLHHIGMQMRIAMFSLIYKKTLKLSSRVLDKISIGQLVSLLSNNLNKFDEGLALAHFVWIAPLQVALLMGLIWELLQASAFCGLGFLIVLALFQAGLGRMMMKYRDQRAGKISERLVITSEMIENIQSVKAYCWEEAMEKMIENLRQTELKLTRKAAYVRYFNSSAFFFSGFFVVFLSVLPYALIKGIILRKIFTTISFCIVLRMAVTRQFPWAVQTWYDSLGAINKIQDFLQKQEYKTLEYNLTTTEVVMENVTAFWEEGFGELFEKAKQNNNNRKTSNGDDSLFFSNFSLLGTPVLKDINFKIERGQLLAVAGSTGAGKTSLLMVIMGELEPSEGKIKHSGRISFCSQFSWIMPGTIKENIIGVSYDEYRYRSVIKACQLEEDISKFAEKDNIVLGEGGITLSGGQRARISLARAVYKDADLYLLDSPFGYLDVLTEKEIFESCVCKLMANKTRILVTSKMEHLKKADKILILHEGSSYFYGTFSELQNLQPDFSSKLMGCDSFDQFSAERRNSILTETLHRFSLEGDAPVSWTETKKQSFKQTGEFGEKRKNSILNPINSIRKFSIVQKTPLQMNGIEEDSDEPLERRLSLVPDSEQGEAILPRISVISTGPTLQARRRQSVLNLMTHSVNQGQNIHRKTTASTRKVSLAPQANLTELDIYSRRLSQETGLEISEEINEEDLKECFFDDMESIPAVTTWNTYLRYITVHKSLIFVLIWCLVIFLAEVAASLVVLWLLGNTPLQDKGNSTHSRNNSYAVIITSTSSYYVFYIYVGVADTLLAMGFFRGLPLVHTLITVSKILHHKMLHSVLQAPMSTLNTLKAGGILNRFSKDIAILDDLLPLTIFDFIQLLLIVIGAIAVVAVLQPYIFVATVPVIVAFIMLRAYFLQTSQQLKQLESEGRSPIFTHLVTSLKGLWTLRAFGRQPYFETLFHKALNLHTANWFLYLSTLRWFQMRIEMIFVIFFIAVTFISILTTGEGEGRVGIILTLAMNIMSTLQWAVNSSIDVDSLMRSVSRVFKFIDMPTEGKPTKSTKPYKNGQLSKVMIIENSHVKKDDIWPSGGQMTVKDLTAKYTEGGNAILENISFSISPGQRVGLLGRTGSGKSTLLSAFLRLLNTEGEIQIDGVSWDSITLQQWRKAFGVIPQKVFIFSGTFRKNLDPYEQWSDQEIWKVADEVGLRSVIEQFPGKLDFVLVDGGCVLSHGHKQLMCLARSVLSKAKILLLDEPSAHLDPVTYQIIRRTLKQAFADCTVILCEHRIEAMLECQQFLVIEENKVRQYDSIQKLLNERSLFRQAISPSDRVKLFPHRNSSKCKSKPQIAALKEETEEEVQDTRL

| Structure (SMILES) | Ent. B Max Activity (%) (Table 9) | EC50 (Table 9, read-out: Ent. B EC50) | further results |
| --- | --- | --- | --- |
| Cc1cccc(C)c1-c1cc2nc(n1)NS(=O)(=O)c1cccc(c1)C(=O)N(C1CC3(CCN(CCO)CC3)C1)[C@H](CC(C)C)CO2 [Compound 289] | ++ (++ is 30-60%) | < 1 µM |  |
| CN[C@H]1C[C@]2(C1)C[C@H](N1C(=O)c3cccc(c3)S(=O)(=O)Nc3nc(cc(-c4c(C)cccc4C)n3)OC[C@H]1CC1(C(F)(F)F)CC1)C2 (stereo partly drawn) [Compound 268] | +++ (+++ is >60%) | < 1 µM |  |
| COCCN1CCC2(CC1)CC(N1C(=O)c3cccc(c3)S(=O)(=O)Nc3nc(cc(-c4c(C)cccc4C)n3)OC[C@H]1CC1(C(F)(F)F)CC1)C2 [Compound 128, (11R)-6-(2,6-Dimethylphenyl)-12-[7-(2-methoxyethyl)-7-azaspiro[3.5]nonan-2-yl]-2,2-dioxo-11-[[1-(trifluoromethyl)cyclopropyl]methyl]-9-oxa-2λ^6-thia-3,5,12,19-tetrazatricyclo[12.3.1.14,8]nonadeca-1(18),4(19),5,7,14,16-hexaen-13-one] |  |  | Ent. B Max Activity (%): +++ (+++ is >60%); EC50 (read-out: Ent. B EC50): < 1 µM |
| COCCNC(=O)O[C@H]1C[C@H](N2C(=O)c3cccc(c3)S(=O)(=O)Nc3nc(cc(-c4c(C)cccc4C)n3)OC[C@H]2CC(C)C)C1 (stereo in doubt) [Compound 364] |  |  | Ent. B Max Activity (%) (Table 10): +++ (+++ is >60%); EC50 [1]: < 1 µM |
| Cc1cccc(C)c1-c1cc2nc(n1)NS(=O)(=O)c1cccc(c1)C(=O)N([C@H]1C[C@@H](N3C[C@@H](O)CC3=O)C1)[C@H](CC(C)C)CO2 (stereo in doubt) [Compound 370] |  |  | Ent. B Max Activity (%) (Table 10): ++ (++ is 30-60%); EC50 [1]: < 1 µM |
| Cc1cccc(C)c1-c1cc2nc(n1)NS(=O)(=O)c1cccc(c1)C(=O)N([C@H]1C[C@]3(C[C@H](NC(C)C)C3)C1)[C@H](CC1(C(F)(F)F)CC1)CO2 (stereo partly drawn) [Compound 265] | +++ (+++ is >60%) | < 1 µM |  |
| Cc1cccc(C)c1-c1cc2nc(n1)NS(=O)(=O)c1cccc(c1)C(=O)N(C1CC3(CCN(C(=O)OC(C)C)CC3)C1)C[C@@H](C)O2 [Compound 181, Isopropyl 2-[(10R)-6-(2,6-dimethylphenyl)-10-methyl-2,2,13-trioxo-9-oxa-2λ^6-thia-3,5,12,19-tetrazatricyclo[12.3.1.14,8]nonadeca-1(18),4(19),5,7,14,16-hexaen-12-yl]-7-azaspiro[3.5]nonane-7-carboxylate] |  |  | Ent. B Max Activity (%): +++ (+++ is >60%); EC50 (read-out: Ent. B EC50): < 1 µM |
| Cc1cccc(C)c1-c1cc2nc(n1)NS(=O)(=O)c1cccc(c1)C(=O)N(C1CC(NC(=O)OC(C)(C)C)C1)[C@H](CC(C)(C)C(F)(F)F)CO2 (single isomer, unassigned) [Compound 193] | +++ (+++ is >60%) | < 1 µM |  |
| Cc1cccc(C)c1-c1cc2nc(n1)NS(=O)(=O)c1cccc(c1)C(=O)N(C1CC3(CCN(CCOC4CC4)CC3)C1)[C@H](CC(C)C)CO2 [Compound 278] | +++ (+++ is >60%) | < 1 µM |  |
| Cc1cccc(C)c1-c1cc2nc(n1)NS(=O)(=O)c1cccc(c1)C(=O)N(C1CS(=O)(=O)C1)[C@H](CC(C)(C)C)CO2 [Compound 222] |  |  | Ent. B Max Activity (%) (Table 10): +++ (+++ is >60%); EC50 [1]: < 1 µM |
| Cc1cccc(C)c1-c1cc2nc(n1)NS(=O)(=O)c1cc(n(C)n1)C(=O)N(C1CC3(CCN(C)CC3)C1)[C@H](CC(C)C)CO2 [Compound 293] | +++ (+++ is >60%) | 1 to 3 µM |  |
| COCCn1cc(N2C(=O)c3cccc(c3)S(=O)(=O)Nc3nc(cc(-c4c(C)cccc4C)n3)OC[C@H]2CC(C)(C)C)cn1 [Compound 225] |  |  | Ent. B Max Activity (%) (Table 10): +++ (+++ is >60%); EC50 [1]: < 1 µM |
| Cc1cccc(C)c1-c1cc2nc(n1)NS(=O)(=O)c1cccc(c1)C(=O)N(C1CC(C(=O)N3CCOCC3)C1)[C@H](CC(C)C)CO2 (stereo partly drawn) [Compound 307] |  |  | Ent. B Max Activity (%): +++ (+++ is >60%); EC50 (read-out: Ent. B EC50): < 1 µM |
| [H][C@]1(N2C(=O)c3cccc(c3)S(=O)(=O)Nc3nc(cc(-c4c(C)cccc4C)n3)OC[C@H]2CC2(C(F)(F)F)CC2)C[C@@]2(C[C@H](NC(=O)OC(C)C)C2)C1 (stereo partly drawn) [Compound 78, Isopropyl ((2S,4s,6S)-6-((R)-1^6-(2,6-dimethylphenyl)-3,3-dioxido-5-oxo-7-((1-(trifluoromethyl)cyclopropyl)methyl)-9-oxa-3-thia-2,6-diaza-1(2,4)-pyrimidina-4(1,3)-benzenacyclononaphane-6-yl)spiro[3.3]heptan-2-yl)carbamate] |  |  | Ent. B Max Activity (%): +++ (+++ is >60%); EC50 (read-out: Ent. B EC50): < 1 µM |
| COCC(=O)N1CCC2(CC1)CC(N1C(=O)c3cccc(c3)S(=O)(=O)Nc3nc(cc(-c4c(C)cccc4C)n3)OC[C@H]1CC(C)C)C2 [Compound 459] | +++ (+++ is >60%) | < 1 µM |  |
| CCOCCN1CCC2(CC1)CC(N1C(=O)c3cccc(c3)S(=O)(=O)Nc3nc(cc(-c4c(C)cccc4C)n3)OC[C@H]1CC(C)C)C2 [Compound 310] |  |  | Ent. B Max Activity (%): +++ (+++ is >60%); EC50 (read-out: Ent. B EC50): < 1 µM |
| COCCN1CCC(N2C(=O)c3cccc(c3)S(=O)(=O)Nc3nc(cc(-c4c(C)cccc4C)n3)OC[C@H]2CC(C)C)C1 (stereo in doubt) [Compound 294] |  |  | Ent. B Max Activity (%): +++ (+++ is >60%); EC50 (read-out: Ent. B EC50): < 1 µM |
| [H][C@]1(N2C(=O)c3cccc(c3)S(=O)(=O)Nc3nc(cc(-c4c(C)cccc4C)n3)OC[C@H]2CC(C)C)C[C@@]2(C[C@H](NC(=O)OC(C)C)C2)C1 (single isomer, unassigned) [Compound 123] |  |  | Ent. B Max Activity (%) (Table 10): +++ (+++ is >60%); EC50 [1]: < 1 µM |
| Cc1cccc(C)c1-c1cc2nc(n1)NS(=O)(=O)c1cccc(c1)C(=O)N(C1CC(N3CCN(C)C(=O)C3)C1)[C@H](CC(C)C)CO2 (stereo partly drawn) [Compound 384] | +++ (+++ is >60%) | < 1 µM |  |
| Cc1cccc(C)c1-c1cc2nc(n1)NS(=O)(=O)c1cccc(c1)C(=O)N(C1CC(CO)(C(C)(C)O)C1)[C@H](CC(C)(C)C)CO2 (single isomer, unassigned) [Compound 159] |  |  | Ent. B Max Activity (%) (Table 10): +++ (+++ is >60%); EC50 [1]: < 1 µM |
| Cc1cccc(C)c1-c1cc2nc(n1)NS(=O)(=O)c1cccc(c1)C(=O)N(C1CC(N3CCS(=O)(=O)CC3)C1)[C@H](CC(C)C)CO2 (stereo partly drawn) [Compound 72, (11R)-6-(2,6-dimethylphenyl)-12-[3-(1,1-dioxo-1,4-thiazinan-4-yl)cyclobutyl]-11-isobutyl-2,2-dioxo-9-oxa-2λ^6-thia-3,5,12,19-tetrazatricyclo[12.3.1.14,8]nonadeca-1(18),4(19),5,7,14,16-hexaen-13-one] | +++ (+++ is >60%) | < 1 µM |  |
| Cc1cccc(C)c1-c1cc2nc(n1)NS(=O)(=O)c1cccc(c1)C(=O)N(C1CCN(C)CC1)CC(CC(C)C)CO2 (stereo not drawn) [Compound 440] | ++ (++ is 30-60%) | 1 to 3 µM |  |
| COC(=O)N[C@H]1C[C@@H](N2C(=O)c3cccc(c3)S(=O)(=O)Nc3nc(cc(-c4c(C)cccc4C)n3)OC[C@H]2CC(C)(C)C)C1 [Compound 472] | +++ (+++ is >60%) | < 1 µM |  |
| Cc1ccc(F)c(C)c1-c1cc2nc(n1)NS(=O)(=O)c1cccc(c1)C(=O)N(C1CC3(CC3)C1)[C@H](CC(C)C)CO2 [Compound 424] | +++ (+++ is >60%) | < 1 µM |  |
